ChEMBL document CHEMBL3991601, “The target landscape of clinical kinase drugs” (Science, 2017)
Active and inactive are the calls of the source.

Key:
[1] = molecular target: Mitogen-activated protein kinase 14 (Homo sapiens, UniProt Q16539)
[2] = molecular target: Protein kinase C theta type (Homo sapiens, UniProt Q04759)
[3] = molecular target: Dual specificity protein kinase CLK3 (Homo sapiens, UniProt P49761); type: subcellular, K-562, COLO 205, SK-N-BE(2) and MV-4-11, Cell lysate; details: read-out: Kd apparent
Sequence of Dual specificity protein kinase CLK3 (P49761 whole entry): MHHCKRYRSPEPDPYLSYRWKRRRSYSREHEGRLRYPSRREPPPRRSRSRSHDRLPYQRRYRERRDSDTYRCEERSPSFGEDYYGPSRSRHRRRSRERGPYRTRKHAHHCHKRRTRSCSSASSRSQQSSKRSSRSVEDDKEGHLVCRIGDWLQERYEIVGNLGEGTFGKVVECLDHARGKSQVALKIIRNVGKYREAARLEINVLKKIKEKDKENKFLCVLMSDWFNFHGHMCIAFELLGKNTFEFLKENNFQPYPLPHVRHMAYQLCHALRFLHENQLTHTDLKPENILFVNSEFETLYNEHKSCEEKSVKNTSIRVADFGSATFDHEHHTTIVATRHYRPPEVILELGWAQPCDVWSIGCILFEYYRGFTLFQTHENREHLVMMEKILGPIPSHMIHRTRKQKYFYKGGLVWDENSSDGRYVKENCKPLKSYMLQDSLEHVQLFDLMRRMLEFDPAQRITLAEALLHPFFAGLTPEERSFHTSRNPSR

[4] = molecular target: T1, ATP-dependent RNA helicase DHX30 (Homo sapiens, UniProt Q7L2E3)
T1 sequence (Q7L2E3 whole entry): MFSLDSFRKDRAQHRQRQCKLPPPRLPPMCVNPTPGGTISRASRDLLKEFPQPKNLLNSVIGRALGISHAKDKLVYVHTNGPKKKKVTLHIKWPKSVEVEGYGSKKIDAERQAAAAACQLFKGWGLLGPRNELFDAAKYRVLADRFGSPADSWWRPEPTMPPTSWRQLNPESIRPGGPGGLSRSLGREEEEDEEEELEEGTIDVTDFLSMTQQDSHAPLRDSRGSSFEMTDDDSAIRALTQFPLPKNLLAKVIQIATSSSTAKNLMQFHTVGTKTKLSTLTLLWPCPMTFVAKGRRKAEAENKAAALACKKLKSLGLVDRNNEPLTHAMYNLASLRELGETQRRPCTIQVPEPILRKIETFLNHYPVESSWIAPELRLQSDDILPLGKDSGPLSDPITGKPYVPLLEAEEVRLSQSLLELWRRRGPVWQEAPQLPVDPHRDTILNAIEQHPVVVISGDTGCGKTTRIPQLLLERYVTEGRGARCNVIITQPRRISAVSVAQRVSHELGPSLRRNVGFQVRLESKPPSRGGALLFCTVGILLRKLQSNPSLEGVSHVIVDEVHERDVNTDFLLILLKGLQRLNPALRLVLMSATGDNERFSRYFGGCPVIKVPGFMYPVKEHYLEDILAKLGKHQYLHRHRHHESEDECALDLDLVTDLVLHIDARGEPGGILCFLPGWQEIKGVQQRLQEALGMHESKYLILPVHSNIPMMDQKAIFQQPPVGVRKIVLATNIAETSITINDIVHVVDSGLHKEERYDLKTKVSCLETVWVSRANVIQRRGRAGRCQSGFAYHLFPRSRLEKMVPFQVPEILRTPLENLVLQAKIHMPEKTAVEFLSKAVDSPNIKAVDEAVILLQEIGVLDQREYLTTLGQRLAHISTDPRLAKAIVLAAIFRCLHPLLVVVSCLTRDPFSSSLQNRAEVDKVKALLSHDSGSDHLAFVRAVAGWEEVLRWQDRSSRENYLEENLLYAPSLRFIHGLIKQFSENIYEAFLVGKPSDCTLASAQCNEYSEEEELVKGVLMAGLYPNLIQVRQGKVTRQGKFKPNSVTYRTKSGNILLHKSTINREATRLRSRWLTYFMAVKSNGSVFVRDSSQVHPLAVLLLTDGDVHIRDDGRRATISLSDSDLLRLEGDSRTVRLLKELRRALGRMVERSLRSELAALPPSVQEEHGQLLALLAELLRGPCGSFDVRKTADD

[5] = molecular target: T2, Eukaryotic translation initiation factor 5B (Homo sapiens, UniProt O60841)
T2 sequence (O60841 whole entry): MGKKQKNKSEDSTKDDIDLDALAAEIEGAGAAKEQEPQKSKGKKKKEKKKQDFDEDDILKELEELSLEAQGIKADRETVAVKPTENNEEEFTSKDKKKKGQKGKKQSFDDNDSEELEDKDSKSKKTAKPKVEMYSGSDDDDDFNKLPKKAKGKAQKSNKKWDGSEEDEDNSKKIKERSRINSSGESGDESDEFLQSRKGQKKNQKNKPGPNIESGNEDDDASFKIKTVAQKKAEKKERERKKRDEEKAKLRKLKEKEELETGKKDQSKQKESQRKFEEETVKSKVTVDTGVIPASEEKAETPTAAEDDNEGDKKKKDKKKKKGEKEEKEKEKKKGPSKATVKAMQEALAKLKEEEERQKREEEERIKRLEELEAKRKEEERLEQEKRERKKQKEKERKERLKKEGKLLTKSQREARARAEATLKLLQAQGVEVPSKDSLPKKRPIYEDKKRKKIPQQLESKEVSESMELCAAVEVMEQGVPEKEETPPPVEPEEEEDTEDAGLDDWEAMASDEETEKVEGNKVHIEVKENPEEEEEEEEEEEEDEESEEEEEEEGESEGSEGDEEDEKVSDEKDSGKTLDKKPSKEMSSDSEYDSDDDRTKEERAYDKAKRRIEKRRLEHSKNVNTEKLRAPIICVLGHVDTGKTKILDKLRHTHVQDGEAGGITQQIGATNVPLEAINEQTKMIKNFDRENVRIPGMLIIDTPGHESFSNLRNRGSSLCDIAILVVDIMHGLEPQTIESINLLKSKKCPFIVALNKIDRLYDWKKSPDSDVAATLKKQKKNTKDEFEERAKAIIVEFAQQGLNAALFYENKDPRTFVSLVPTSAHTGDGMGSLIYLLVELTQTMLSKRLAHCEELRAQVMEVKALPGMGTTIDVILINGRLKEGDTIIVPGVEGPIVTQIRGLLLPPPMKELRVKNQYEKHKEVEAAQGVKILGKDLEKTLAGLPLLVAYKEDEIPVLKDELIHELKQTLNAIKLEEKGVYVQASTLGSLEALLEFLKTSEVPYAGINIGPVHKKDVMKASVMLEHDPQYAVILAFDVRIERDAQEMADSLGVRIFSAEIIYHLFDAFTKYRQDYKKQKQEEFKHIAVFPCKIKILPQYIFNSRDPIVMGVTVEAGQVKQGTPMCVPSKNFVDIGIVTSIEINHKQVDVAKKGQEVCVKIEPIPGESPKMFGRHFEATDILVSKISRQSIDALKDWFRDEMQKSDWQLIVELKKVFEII

[6] = molecular target: Cell division cycle 7-related protein kinase (Homo sapiens, UniProt O00311)
[7] = molecular target: Serine/threonine-protein kinase 24 (Homo sapiens, UniProt Q9Y6E0)
Sequence of Serine/threonine-protein kinase 24 (Q9Y6E0 whole entry): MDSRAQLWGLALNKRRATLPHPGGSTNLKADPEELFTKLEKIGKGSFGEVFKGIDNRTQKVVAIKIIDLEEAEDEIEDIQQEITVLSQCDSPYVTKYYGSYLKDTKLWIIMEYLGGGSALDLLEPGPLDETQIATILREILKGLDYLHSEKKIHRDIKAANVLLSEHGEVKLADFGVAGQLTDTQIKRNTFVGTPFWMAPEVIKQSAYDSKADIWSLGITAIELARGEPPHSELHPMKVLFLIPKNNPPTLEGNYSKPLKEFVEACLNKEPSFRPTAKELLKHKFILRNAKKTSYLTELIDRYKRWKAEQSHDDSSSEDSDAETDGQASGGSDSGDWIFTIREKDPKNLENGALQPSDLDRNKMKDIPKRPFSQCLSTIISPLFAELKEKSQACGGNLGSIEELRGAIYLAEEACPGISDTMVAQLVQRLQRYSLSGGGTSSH

[8] = molecular target: Tyrosine-protein kinase Lck (Homo sapiens, UniProt P06239)
Focal adhesion kinase 1 = Focal adhesion kinase 1 (Homo sapiens, UniProt Q05397)
Sequence of Focal adhesion kinase 1 (Q05397 whole entry): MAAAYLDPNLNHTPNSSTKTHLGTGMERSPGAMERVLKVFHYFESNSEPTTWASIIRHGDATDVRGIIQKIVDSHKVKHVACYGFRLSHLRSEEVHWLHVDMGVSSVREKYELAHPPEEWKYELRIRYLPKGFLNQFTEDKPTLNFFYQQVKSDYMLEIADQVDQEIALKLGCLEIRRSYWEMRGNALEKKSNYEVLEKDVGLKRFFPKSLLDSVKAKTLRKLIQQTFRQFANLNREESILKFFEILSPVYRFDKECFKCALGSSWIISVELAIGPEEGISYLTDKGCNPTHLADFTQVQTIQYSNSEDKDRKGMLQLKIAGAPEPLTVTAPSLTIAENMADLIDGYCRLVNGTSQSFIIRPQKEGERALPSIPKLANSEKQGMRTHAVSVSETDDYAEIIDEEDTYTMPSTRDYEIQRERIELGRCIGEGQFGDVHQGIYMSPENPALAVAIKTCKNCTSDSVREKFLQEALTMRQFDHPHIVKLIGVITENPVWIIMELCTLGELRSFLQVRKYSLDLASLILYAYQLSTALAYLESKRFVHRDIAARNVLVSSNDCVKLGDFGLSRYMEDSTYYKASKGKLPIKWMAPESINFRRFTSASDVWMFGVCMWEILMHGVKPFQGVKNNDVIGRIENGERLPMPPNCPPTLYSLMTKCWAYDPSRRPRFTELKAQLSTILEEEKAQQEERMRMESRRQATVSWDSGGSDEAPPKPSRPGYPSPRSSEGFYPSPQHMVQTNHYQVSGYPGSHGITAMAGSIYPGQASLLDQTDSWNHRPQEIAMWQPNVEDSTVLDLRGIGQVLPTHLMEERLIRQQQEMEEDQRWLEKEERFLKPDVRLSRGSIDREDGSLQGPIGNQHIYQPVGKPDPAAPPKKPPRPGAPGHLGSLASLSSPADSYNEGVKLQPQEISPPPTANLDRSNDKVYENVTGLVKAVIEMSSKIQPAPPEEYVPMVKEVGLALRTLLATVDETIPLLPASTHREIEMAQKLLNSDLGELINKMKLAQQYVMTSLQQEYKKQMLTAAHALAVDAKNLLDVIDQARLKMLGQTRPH

Myosin-10 = Myosin-10 (Homo sapiens, UniProt P35580)
[9] = molecular target: Hepatocyte growth factor receptor (Homo sapiens, UniProt P08581)
[10] = molecular target: DNA topoisomerase 2-alpha (Homo sapiens, UniProt P11388)
Sequence of DNA topoisomerase 2-alpha (P11388 whole entry): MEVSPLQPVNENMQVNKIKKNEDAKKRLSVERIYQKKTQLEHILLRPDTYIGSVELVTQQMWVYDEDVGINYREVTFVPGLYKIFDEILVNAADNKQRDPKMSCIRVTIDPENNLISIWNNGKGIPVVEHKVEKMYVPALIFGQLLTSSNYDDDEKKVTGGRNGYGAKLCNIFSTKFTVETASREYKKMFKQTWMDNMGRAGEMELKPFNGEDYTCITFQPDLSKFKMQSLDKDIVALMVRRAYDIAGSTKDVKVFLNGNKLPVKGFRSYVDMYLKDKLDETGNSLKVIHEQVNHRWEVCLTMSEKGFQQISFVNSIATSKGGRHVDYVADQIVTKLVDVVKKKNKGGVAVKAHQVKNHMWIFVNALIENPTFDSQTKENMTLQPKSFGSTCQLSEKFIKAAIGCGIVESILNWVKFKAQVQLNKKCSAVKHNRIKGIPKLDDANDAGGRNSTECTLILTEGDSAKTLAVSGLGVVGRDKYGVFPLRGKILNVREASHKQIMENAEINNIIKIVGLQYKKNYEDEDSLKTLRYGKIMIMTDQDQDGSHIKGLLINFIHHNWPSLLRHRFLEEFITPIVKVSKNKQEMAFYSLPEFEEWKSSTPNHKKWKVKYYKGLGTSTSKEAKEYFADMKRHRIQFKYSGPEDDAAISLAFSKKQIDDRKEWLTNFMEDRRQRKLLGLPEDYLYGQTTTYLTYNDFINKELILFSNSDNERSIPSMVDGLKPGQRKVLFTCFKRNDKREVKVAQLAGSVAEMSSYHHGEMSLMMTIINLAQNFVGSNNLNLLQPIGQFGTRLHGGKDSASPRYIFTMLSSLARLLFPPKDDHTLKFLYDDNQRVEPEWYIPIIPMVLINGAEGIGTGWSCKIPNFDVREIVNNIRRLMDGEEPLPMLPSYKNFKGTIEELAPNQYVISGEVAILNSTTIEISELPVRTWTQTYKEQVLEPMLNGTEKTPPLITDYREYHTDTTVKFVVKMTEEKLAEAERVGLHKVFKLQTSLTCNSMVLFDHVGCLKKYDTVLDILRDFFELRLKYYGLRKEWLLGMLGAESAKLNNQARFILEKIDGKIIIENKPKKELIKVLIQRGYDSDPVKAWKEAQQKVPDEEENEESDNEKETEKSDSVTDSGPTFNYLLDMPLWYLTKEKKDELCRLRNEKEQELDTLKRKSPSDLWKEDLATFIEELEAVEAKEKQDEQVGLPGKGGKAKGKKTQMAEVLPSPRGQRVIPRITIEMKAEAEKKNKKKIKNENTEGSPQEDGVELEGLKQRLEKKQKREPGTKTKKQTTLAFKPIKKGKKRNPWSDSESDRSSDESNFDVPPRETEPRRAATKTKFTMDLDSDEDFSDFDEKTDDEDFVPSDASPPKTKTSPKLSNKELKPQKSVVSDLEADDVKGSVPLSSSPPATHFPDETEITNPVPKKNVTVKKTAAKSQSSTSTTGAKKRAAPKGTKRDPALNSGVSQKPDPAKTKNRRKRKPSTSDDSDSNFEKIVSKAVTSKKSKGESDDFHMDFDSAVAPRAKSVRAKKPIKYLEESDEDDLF

[11] = molecular target: Epidermal growth factor receptor (Homo sapiens, UniProt P00533)
Sequence of Epidermal growth factor receptor (P00533 whole entry): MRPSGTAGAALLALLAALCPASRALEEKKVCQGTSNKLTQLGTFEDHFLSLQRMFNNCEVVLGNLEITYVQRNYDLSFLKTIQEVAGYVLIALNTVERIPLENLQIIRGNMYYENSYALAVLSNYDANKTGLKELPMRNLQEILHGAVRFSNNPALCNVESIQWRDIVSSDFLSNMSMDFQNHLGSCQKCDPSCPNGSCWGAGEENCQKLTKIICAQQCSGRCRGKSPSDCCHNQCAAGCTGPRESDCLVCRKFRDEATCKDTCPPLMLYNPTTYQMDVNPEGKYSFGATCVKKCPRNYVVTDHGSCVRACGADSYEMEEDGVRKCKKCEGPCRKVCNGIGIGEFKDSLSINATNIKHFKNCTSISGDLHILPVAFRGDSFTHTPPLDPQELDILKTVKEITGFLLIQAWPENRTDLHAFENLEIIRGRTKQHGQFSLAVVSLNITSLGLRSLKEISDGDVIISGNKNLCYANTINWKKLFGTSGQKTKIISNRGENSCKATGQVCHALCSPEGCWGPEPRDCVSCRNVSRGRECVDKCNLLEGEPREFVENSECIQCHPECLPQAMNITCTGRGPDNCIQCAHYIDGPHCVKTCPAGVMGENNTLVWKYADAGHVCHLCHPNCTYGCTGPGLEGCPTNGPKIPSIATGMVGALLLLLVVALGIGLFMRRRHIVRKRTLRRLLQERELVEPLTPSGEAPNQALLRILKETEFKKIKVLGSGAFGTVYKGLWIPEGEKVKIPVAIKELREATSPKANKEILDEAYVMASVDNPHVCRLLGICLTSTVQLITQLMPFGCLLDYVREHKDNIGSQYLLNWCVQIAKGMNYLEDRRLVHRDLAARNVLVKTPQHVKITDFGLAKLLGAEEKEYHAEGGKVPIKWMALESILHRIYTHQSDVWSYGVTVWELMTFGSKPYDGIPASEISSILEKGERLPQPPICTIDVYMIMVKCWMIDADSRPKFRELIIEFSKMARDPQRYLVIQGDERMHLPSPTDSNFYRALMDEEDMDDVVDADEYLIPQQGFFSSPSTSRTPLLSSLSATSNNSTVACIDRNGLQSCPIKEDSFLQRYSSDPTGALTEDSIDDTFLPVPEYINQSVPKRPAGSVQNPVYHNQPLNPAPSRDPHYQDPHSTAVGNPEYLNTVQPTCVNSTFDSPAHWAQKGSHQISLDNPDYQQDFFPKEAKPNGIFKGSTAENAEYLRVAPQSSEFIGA
Further: in the data inactive means no Kd found up to 30 µM.

Sequence of Mitogen-activated protein kinase 14 (Q16539 whole entry): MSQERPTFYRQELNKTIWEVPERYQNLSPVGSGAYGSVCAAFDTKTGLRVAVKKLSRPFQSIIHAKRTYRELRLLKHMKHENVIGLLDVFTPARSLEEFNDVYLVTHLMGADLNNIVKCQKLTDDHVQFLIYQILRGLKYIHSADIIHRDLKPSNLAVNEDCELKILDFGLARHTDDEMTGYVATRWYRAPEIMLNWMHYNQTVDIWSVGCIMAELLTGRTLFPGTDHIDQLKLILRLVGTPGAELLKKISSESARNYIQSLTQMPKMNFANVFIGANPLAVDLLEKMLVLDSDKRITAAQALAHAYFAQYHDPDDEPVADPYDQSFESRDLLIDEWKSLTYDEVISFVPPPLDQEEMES

Row | SMILES | Kd [1] | Kd [2] | Kd [3] | Kd [4] | Kd [5] | Kd [6] | Kd [7] | Kd [8] | Kd (Focal adhesion kinase 1) | Kd (Myosin-10) | Kd [9] | Kd [10] | Kd [11]
1 | COc1cc2nccc(Oc3ccc(NC(=O)C4(C(=O)Nc5ccc(F)cc5)CC4)cc3)c2cc1OC [CABOZANTINIB] | > 30 µM (inactive) | > 30 µM (inactive) | > 30 µM (inactive) | > 30 µM (inactive) | > 30 µM (inactive) | > 30 µM (inactive) | > 30 µM (inactive) | 1.05 µM (active) | > 30 µM (inactive) | > 30 µM (inactive) |  |  | 
2 | Cc1cc(Nc2nc(N[C@@H](C)c3ncc(F)cn3)ncc2Cl)n[nH]1 [AZD-1480] | > 30 µM (inactive) | > 30 µM (inactive) | > 30 µM (inactive) | > 30 µM (inactive) | > 30 µM (inactive) | > 30 µM (inactive) | > 30 µM (inactive) | > 30 µM (inactive) | 0.191 µM (active) | > 30 µM (inactive) | > 30 µM (inactive) | > 30 µM (inactive) | > 30 µM (inactive)
3 | COc1cc(Nc2ncc(F)c(Nc3ccc4c(n3)N(COP(=O)(O)O)C(=O)C(C)(C)O4)n2)cc(OC)c1OC [FOSTAMATINIB] | > 30 µM (inactive) | > 30 µM (inactive) | > 30 µM (inactive) | > 30 µM (inactive) |  | > 30 µM (inactive) | > 30 µM (inactive) | > 30 µM (inactive) | 5.4 µM (active) | > 30 µM (inactive) | > 30 µM (inactive) |  | > 30 µM (inactive)
4 | COCCN1CCN(Cc2ccc(-c3n[nH]c4c3C(=O)c3c(NC(=O)NN5CCOCC5)cccc3-4)cc2)CC1 [RGB-286638] | > 30 µM (inactive) | > 30 µM (inactive) | > 30 µM (inactive) | > 30 µM (inactive) | > 30 µM (inactive) | > 30 µM (inactive) |  | > 30 µM (inactive) | > 30 µM (inactive) | > 30 µM (inactive) | > 30 µM (inactive) | > 30 µM (inactive) | > 30 µM (inactive)
5 | Cc1ccc(C(=O)Nc2ccc(Oc3cc4cnn(C)c4cc3-c3cn[nH]c3)c(F)c2)c(=O)n1-c1ccc(F)cc1 [MERESTINIB] | > 30 µM (inactive) | > 30 µM (inactive) | > 30 µM (inactive) | > 30 µM (inactive) | > 30 µM (inactive) | > 30 µM (inactive) | > 30 µM (inactive) | > 30 µM (inactive) | > 30 µM (inactive) | > 30 µM (inactive) |  | > 30 µM (inactive) | > 30 µM (inactive)
6 | Cc1c(Cn2c(C)nc3c(C(=O)O)cc(N4CCOCC4)cc32)cccc1C(F)(F)F [GSK-2636771] | > 30 µM (inactive) | > 30 µM (inactive) | > 30 µM (inactive) |  |  | > 30 µM (inactive) | > 30 µM (inactive) | > 30 µM (inactive) | > 30 µM (inactive) |  | > 30 µM (inactive) | > 30 µM (inactive) | > 30 µM (inactive)
7 | Cn1cc(-c2[nH]c3cc(NC(=O)[C@H](N)C4CCCCC4)cc4c3c2C=NNC4=O)cn1 | > 30 µM (inactive) | > 30 µM (inactive) | > 30 µM (inactive) | > 30 µM (inactive) |  | > 30 µM (inactive) | > 30 µM (inactive) | 1.38 µM (active) | > 30 µM (inactive) | > 30 µM (inactive) | > 30 µM (inactive) | > 30 µM (inactive) | 
8 | C#Cc1cccc(Nc2ncnc3cc4c(cc23)OCCOCCOCCO4)c1 [ICOTINIB] | > 30 µM (inactive) | > 30 µM (inactive) | > 30 µM (inactive) | > 30 µM (inactive) | > 30 µM (inactive) | > 30 µM (inactive) | > 30 µM (inactive) | > 30 µM (inactive) | > 30 µM (inactive) | > 30 µM (inactive) | > 30 µM (inactive) | > 30 µM (inactive) | 10.1 µM (active)
9 | CCN1CCN(Cc2ccc(Nc3ncc(F)c(-c4cc(F)c5nc(C)n(C(C)C)c5c4)n3)nc2)CC1 [ABEMACICLIB] | > 30 µM (inactive) | > 30 µM (inactive) | > 30 µM (inactive) |  | > 30 µM (inactive) | > 30 µM (inactive) | > 30 µM (inactive) | > 30 µM (inactive) | > 30 µM (inactive) |  | > 30 µM (inactive) | > 30 µM (inactive) | > 30 µM (inactive)
10 | CC1(COc2ccc3c(c2)ncn3-c2ccc3cccc(N4CCC(N)CC4)c3n2)COC1 [CRENOLANIB] | > 30 µM (inactive) |  | > 30 µM (inactive) | > 30 µM (inactive) | > 30 µM (inactive) | > 30 µM (inactive) | 0.057 µM (active) |  | > 30 µM (inactive) | > 30 µM (inactive) | > 30 µM (inactive) | > 30 µM (inactive) | > 30 µM (inactive)
11 | O=C(NC[C@H](O)CO)c1ccncc1Nc1ccc(I)cc1F [PIMASERTIB] | > 30 µM (inactive) | > 30 µM (inactive) | > 30 µM (inactive) | > 30 µM (inactive) | > 30 µM (inactive) | > 30 µM (inactive) | > 30 µM (inactive) | > 30 µM (inactive) | > 30 µM (inactive) | > 30 µM (inactive) | > 30 µM (inactive) | > 30 µM (inactive) | > 30 µM (inactive)
12 | CN1CCN(c2nc(C3=C(c4c[nH]c5ccccc45)C(=O)NC3=O)c3ccccc3n2)CC1 [SOTRASTAURIN] | > 30 µM (inactive) | 0.013 µM (active) | > 30 µM (inactive) |  | > 30 µM (inactive) | > 30 µM (inactive) | > 30 µM (inactive) | > 30 µM (inactive) | > 30 µM (inactive) |  | > 30 µM (inactive) | > 30 µM (inactive) | 
